Test results from US9951047B2, “Salt of monocyclic pyridine derivative and crystal thereof” (Eisai R&D Management Co., Ltd., priority 2014, dated 2018).

Columns and labels:
[1] = tested on: human stomach cancer cell line SNU-16; experiment: cells; conditions: SNU-16, 72 h, read-out: SNU-16 (IC50 (nM))
Method: Then, 10 μL of Cell Counting Kit-8 (Dojindo Laboratories, CK04) was added to each well, and the resultant was incubated for 1 to 2 hours in a 5% CO2 incubator (37° C.) to cause a color reaction. The absorbance value was measured with ENVISION™ (PerkinElmer Co., Ltd.) at 450 nm. Absorbance value of the wells without adding the test substance was defined as 100% and the absorbance value of the wells containing no cells was defined as 0%. Then, an absorbance ratio in the presence of the test substance was calculated.

[2] = tested on: SNU-16 subcutaneous xenograft; experiment: Antitumor effect in SNU-16 subcutaneous xenograft model in mice; assay type: in vivo; conditions: nude mice, tumor volume on last day
Method: Human stomach cancer cell line SNU-16, which had been cultured in an RPMI-1640 medium containing 10% FBS, and penicillin/streptomycin, were adjusted to a concentration of 1×10^8 cells/mL with Hanks' Balanced Salt Solution (GIBCO #24020) to prepare a cell suspension, and the suspension was mixed with MATRIGEL (BD Biosciences, Cat#354234) in a ratio of 1:1 to prepare a cell suspension in a concentration of 5×10^7 cells/mil. The cell suspension was inoculated in a volume of 100 μL into a subcutaneous part of a right flank of nude mice, 6 to 7 weeks of ages (BALB/cAJcl-nu/nu, female, Clea Japan Inc.). Seven days after cell inoculation, the shortest diameter and the longest diameter of a tumor in each mouse were measured by using an electronic digital caliper (Digimatic™ caliper, Mitutoyo Corporation), so as to calculate the volume of the tumor in accordance with the following calculation formula: Tumor volume (mm^3)=Longest diameter (mm)×Shortest diameter (mm)×Shortest diameter (mm)/2
On the basis of the volumes of tumors obtained on the first day of administration, the nude mice were grouped such that averages of the tumor volumes were substantially equal among the groups. Each test substance was dissolved in DMSO, Tween 80 was added thereto to prepare a solution in a 10-fold concentration and the thus prepared solution was stored at the freezer before use. Immediately before the administration, the stock solution was diluted with a 5% glucose solution to obtain a final administration solution (in which a ratio in % among DMSO, Tween 80 and the 5% glucose solution was 3.5:6.5:90). Each evaluation sample was orally administered to test substance administration group at a volume of 20 mL/Kg once a day continuously for 11 days, and in a control group, an administration solvent was orally administered under the same conditions. Incidentally, the experiment was conducted on groups each consisting of 5 mice.
With respect to each of the control group and test substance administration group, a ratio of the weight measured on the final day to the weight measured on the first day (relative body weight: RBW) was calculated. If a ratio of the RBW of the test substance administration group/the RBW of the control group is 0.9 or more, the corresponding test substance administration group was defined as a well-tolerated. In the test substance administration group thus defined as well-tolerated, a ratio of the tumor volume of the test substance-dosing group to the tumor volume of the control group obtained on the last day (T/C) (%) was calculated, and shown in Table 3.

## CNC(=O)n1ccc2cc(Oc3ccnc(NC(=O)c4ccc(C5CCN(CCO)CC5)cc4)c3)c(OCCOC)cc21 [Compound (I), 5-({2-[({4-[1-(2-hydroxyethyl)piperidin-4-yl]phenyl}carbonyl)amino]pyridin-4-yl}oxy)-6-(2-methoxyethoxy)-N-methyl-1H-indole-1-carboxamide]
[1]
  IC50: 4.2 nM
[2]; 6.25 mg/kg orally once a day for 11 days
  T/C (%): 49%
[2]; 12.5 mg/kg orally once a day for 11 days
  T/C (%): 26%
[2]; 25 mg/kg orally once a day for 11 days
  T/C (%): 16%
[2]; 50 mg/kg orally once a day for 11 days
  T/C (%): 7%
